In ChEMBL document CHEMBL5338723, “Emerging Target-Directed Approaches for the Treatment and Diagnosis of Microbial Infections” (J Med Chem, 2023):
Converted amounts (≈) assume the structure as drawn. Values belong to the compound of their own block, whether it stands above or below them. *1 amine or outer side, *2 acyl side, *3 side chain or, on linkers, in order; H or OH if unused. Where a SMILES comes first, the peptide text is derived from it. [ ]: non-standard residue; d: D form. X2 = Cn1c(=O)n([C@@H]2S[C@H]([C@@H](O)[C@@H](N[*:1])C(=O)[*:2])[C@H](O)[C@H]2O)cc/c1=N/C(N)=O; Orn(N5-OH,N5-Ac) = CC(=O)N(O)CCC[C@H](N)C(=O)O

Columns and labels:
Pseudomonas aeruginosa [1] = experiment: Antibacterial activity against Wild type Pseudomonas aeruginosa KW799 assessed as microbial growth inhibition incubated for 20 hrs in iron depleted media by CLSI protocol based broth microdilution method; format: functional
Pseudomonas aeruginosa [2] = experiment: Antibacterial activity against Pseudomonas aeruginosa PAO1 assessed as microbial growth inhibition incubated for 20 hrs in iron depleted media by CLSI protocol based broth microdilution method; format: functional
Pseudomonas aeruginosa [3] = experiment: Antibacterial activity against Pseudomonas aeruginosa KW799/61 assessed as microbial growth inhibition incubated for 20 hrs in iron depleted media by CLSI protocol based broth microdilution method; format: functional
Pseudomonas aeruginosa [4] = experiment: Antibacterial activity against Pseudomonas aeruginosa Pa4 assessed as microbial growth inhibition incubated for 20 hrs in iron depleted media by CLSI protocol based broth microdilution method; format: functional
Acinetobacter baumannii [5] = experiment: Antimicrobial activity against Acinetobacter baumannii ARC 3486 assessed as microbial growth inhibition; format: functional
Acinetobacter baumannii [6] = experiment: Antimicrobial activity against Acinetobacter baumannii ATCC BAA 1797 assessed as microbial growth inhibition; format: functional
Acinetobacter baumannii [7] = experiment: Antimicrobial activity against Acinetobacter baumannii ATCC 17978 assessed as microbial growth inhibition; format: functional
Acinetobacter baumannii [8] = experiment: Antimicrobial activity against Acinetobacter baumannii ATCC 17978 pNT320 producing cephalosporinase assessed as microbial growth inhibition; format: functional
Acinetobacter baumannii [9] = experiment: Antimicrobial activity against Acinetobacter baumannii ATCC BAA 1800 assessed as microbial growth inhibition; format: functional
Acinetobacter baumannii [10] = experiment: Antimicrobial activity against Acinetobacter baumannii ATCC BAA 1710 assessed as microbial growth inhibition; format: functional
Acinetobacter baumannii [11] = experiment: Antimicrobial activity against Acinetobacter baumannii ATCC 17978 pNT255 assessed as microbial growth inhibition; format: functional
Acinetobacter baumannii [12] = experiment: Antimicrobial activity against Acinetobacter baumannii ARC 3484 assessed as microbial growth inhibition; format: functional
Acinetobacter baumannii [13] = experiment: Antimicrobial activity against Acinetobacter baumannii ATCC 17961 assessed as microbial growth inhibition; format: functional
Acinetobacter baumannii [14] = experiment: Antimicrobial activity against Acinetobacter baumannii ATCC 17978 pNT221 assessed as microbial growth inhibition; format: functional
Acinetobacter baumannii [15] = experiment: Antimicrobial activity against Acinetobacter baumannii ATCC 17978 pNT165 producing carbapenamase assessed as microbial growth inhibition; format: functional
Acinetobacter baumannii [16] = experiment: Antimicrobial activity against Acinetobacter baumannii ARC 5081 assessed as microbial growth inhibition; format: functional
Acinetobacter baumannii [17] = experiment: Antimicrobial activity against Acinetobacter baumannii ATCC BAA 1793 assessed as microbial growth inhibition; format: functional
Acinetobacter baumannii [18] = experiment: Antimicrobial activity against Acinetobacter baumannii ARC 5079 assessed as microbial growth inhibition; format: functional
Escherichia coli [19] = experiment: Antibacterial activity against enterobactin-deficient Escherichia coli harboring delta entB assessed as microbial growth inhibition; format: functional, organism-based
Escherichia coli [20] = experiment: Antibacterial activity against wild type Escherichia coli assessed as microbial growth inhibition; format: functional, organism-based
Escherichia coli [21] = experiment: Antibacterial activity against enterobactin-deficient Escherichia coli harboring delta entA assessed as microbial growth inhibition; format: functional, organism-based
Streptococcus pneumoniae = experiment: Antimicrobial activity against Streptococcus pneumoniae assessed as microbial growth inhibition; format: functional
Staphylococcus aureus [22] = experiment: Antimicrobial activity against Staphylococcus aureus assessed as microbial growth inhibition; format: functional
Bacillus subtilis = experiment: Antimicrobial activity against Bacillus subtilis assessed as microbial growth inhibition; format: functional
Escherichia coli [23] = experiment: Antimicrobial activity against Escherichia coli assessed as microbial growth inhibition; format: functional
Staphylococcus aureus [24] = experiment: Antimicrobial activity against methicillin-resistant Staphylococcus aureus ATCC 33591 assessed as microbial growth inhibition; format: functional
Enterococcus faecalis = experiment: Antimicrobial activity against vancomycin-resistant Enterococcus faecalis ATCC 51575 assessed as microbial growth inhibition; format: functional
Staphylococcus aureus [25] = experiment: Antimicrobial activity against vancomycin intermediate Staphylococcus aureus assessed as microbial growth inhibition; format: functional
Enterococcus faecium = experiment: Antimicrobial activity against vancomycin-resistant Enterococcus faecium ATCC 51559 assessed as microbial growth inhibition; format: functional
Staphylococcus aureus [26] = experiment: Potency index, ratio of ciprofloxacin MIC to test compound MIC for antimicrobial activity against Staphylococcus aureus; format: functional, organism-based
Staphylococcus aureus [27] = experiment: Antibacterial activity against Staphylococcus aureus assessed as microbial growth inhibition; format: functional, organism-based

Compound: CC(=O)Oc1cccc(C(=O)NCCNC(=O)CN2CCN(CC(=O)NCCCC(=O)NC(C(=O)N[C@@H]3C(=O)N4[C@@H]3SC(C)(C)[C@@H]4C(=O)O)c3ccccc3)CCN(CC(=O)NCCNC(=O)c3cccc(OC(C)=O)c3OC(C)=O)CCN(CC(=O)NCCNC(=O)c3cccc(OC(C)=O)c3OC(C)=O)CC2)c1OC(C)=O (stereo not given in full)
IC50 (Escherichia coli [19]): 2.1 µM | IC50 (Escherichia coli [20]): 30.2 µM | IC50 (Escherichia coli [21]): 2.1 µM

Compound: CC(=O)N(O)CCC[C@H](NC(=O)[C@H](CCCN(O)C(C)=O)NC(=O)[C@@H](N)CCCN(O)C(C)=O)C(=O)N[C@@H](CO)C(=O)N[C@@H](C(=O)O)[C@H](O)[C@H]1S[C@@H](n2cc/c(=N/C(N)=O)n(C)c2=O)[C@H](O)[C@H]1O (H-[Orn(N5-OH,N5-Ac)][Orn(N5-OH,N5-Ac)][Orn(N5-OH,N5-Ac)]S[X2]-OH)
MIC (Streptococcus pneumoniae): 0.063 µg/mL (≈ 0.0634 µM) | MIC (Staphylococcus aureus [22]): 0.063 µg/mL (≈ 0.0634 µM) | MIC (Bacillus subtilis): 0.063 µg/mL (≈ 0.0634 µM) | MIC (Escherichia coli [23]): 0.031 µg/mL (≈ 0.0312 µM)

Compound: CN[C@H](CC(C)C)C(=O)N[C@H]1C(=O)N[C@@H](CC(N)=O)C(=O)N[C@H]2C(=O)N[C@H]3C(=O)N[C@H](C(=O)N[C@H](C(=O)NCCCNC(=O)[C@H](O)[C@@H](O)[C@H](O[C@H]4O[C@@H](CO)[C@@H](O)[C@@H](O)[C@@H]4O)[C@H](O)CO)c4cc(O)cc(O)c4-c4cc3ccc4O)[C@H](O)c3ccc(c(Cl)c3)Oc3cc2cc(c3O[C@@H]2O[C@H](CO)[C@@H](O)[C@H](O)[C@H]2O[C@H]2C[C@](C)(N)[C@H](O)[C@H](C)O2)Oc2ccc(cc2Cl)[C@H]1O
MIC (Staphylococcus aureus [24]): 0.4 µM (≈ 0.738 µg/mL) | MIC (Enterococcus faecalis): 30 µM (≈ 55.4 µg/mL) | MIC (Staphylococcus aureus [25]): 0.3 µM (≈ 0.554 µg/mL) | MIC (Enterococcus faecium): 36 µM (≈ 66.4 µg/mL)

Compound: Galbofloxacin
Ratio (Staphylococcus aureus [26]): 10 | MIC (Staphylococcus aureus [27]): 0.093 µM

More lines, now with the values ahead:

MIC (Pseudomonas aeruginosa [1]): 0.05 µM (≈ 0.0647 µg/mL) | MIC (Pseudomonas aeruginosa [2]): 0.05 µM (≈ 0.0647 µg/mL) | MIC (Pseudomonas aeruginosa [3]): 0.05 µM (≈ 0.0647 µg/mL) | MIC (Pseudomonas aeruginosa [4]): 0.05 µM (≈ 0.0647 µg/mL)
Compound: CC(=O)Oc1cccc(C(=O)NCCCC(CCCNC(=O)c2cccc(OC(C)=O)c2OC(C)=O)(CCCNC(=O)c2cccc(OC(C)=O)c2OC(C)=O)NC(=O)CCC(=O)NC(C(=O)NC2C(=O)N3C2SC(C)(C)[C@@H]3C(=O)O)c2ccccc2)c1OC(C)=O (stereo not given in full)

MIC (Acinetobacter baumannii [5]): 0.2 µM (≈ 0.464 µg/mL) | MIC (Acinetobacter baumannii [6]): 0.2 µM (≈ 0.464 µg/mL) | MIC (Acinetobacter baumannii [7]): 0.2 µM (≈ 0.464 µg/mL) | MIC (Acinetobacter baumannii [8]): 0.2 µM (≈ 0.464 µg/mL) | MIC (Acinetobacter baumannii [9]): 0.2 µM (≈ 0.464 µg/mL) | MIC (Acinetobacter baumannii [10]): 0.2 µM (≈ 0.464 µg/mL) | MIC (Acinetobacter baumannii [11]): 0.2 µM (≈ 0.464 µg/mL) | MIC (Acinetobacter baumannii [12]): 0.2 µM (≈ 0.464 µg/mL) | MIC (Acinetobacter baumannii [13]): 0.2 µM (≈ 0.464 µg/mL) | MIC (Acinetobacter baumannii [14]): 0.2 µM (≈ 0.464 µg/mL) | MIC (Acinetobacter baumannii [15]): 0.2 µM (≈ 0.464 µg/mL) | MIC (Acinetobacter baumannii [16]): 0.2 µM (≈ 0.464 µg/mL) | MIC (Acinetobacter baumannii [17]): 0.2 µM (≈ 0.464 µg/mL) | MIC (Acinetobacter baumannii [18]): 0.2 µM (≈ 0.464 µg/mL)
Compound: CCCCCCCCCC(=O)N[C@@H](Cc1c[nH]c2ccccc12)C(=O)N[C@H](CC(N)=O)C(=O)N[C@@H](CC(=O)O)C(=O)N[C@@H]1C(=O)NCC(=O)N[C@@H](CCCNC(=O)CCCC(=O)N(O)CCCCCNC(=O)CCCN(CCCCNC(=O)c2cccc(O)c2O)CCCNC(=O)c2cccc(O)c2O)C(=O)N[C@@H](CC(=O)O)C(=O)N[C@H](C)C(=O)N[C@@H](CC(=O)O)C(=O)NCC(=O)N[C@H](CO)C(=O)N[C@@H](C(C)CC(=O)O)C(=O)N[C@@H](CC(=O)c2ccccc2N)C(=O)O[C@@H]1C (stereo not given in full)

MIC (Acinetobacter baumannii [5]): 0.2 µM (≈ 0.404 µg/mL) | MIC (Acinetobacter baumannii [6]): 0.2 µM (≈ 0.404 µg/mL) | MIC (Acinetobacter baumannii [7]): 0.2 µM (≈ 0.404 µg/mL) | MIC (Acinetobacter baumannii [8]): 0.2 µM (≈ 0.404 µg/mL) | MIC (Acinetobacter baumannii [9]): 0.2 µM (≈ 0.404 µg/mL) | MIC (Acinetobacter baumannii [10]): 0.2 µM (≈ 0.404 µg/mL) | MIC (Acinetobacter baumannii [11]): 0.2 µM (≈ 0.404 µg/mL) | MIC (Acinetobacter baumannii [12]): 0.2 µM (≈ 0.404 µg/mL) | MIC (Acinetobacter baumannii [13]): 0.2 µM (≈ 0.404 µg/mL) | MIC (Acinetobacter baumannii [14]): 0.2 µM (≈ 0.404 µg/mL) | MIC (Acinetobacter baumannii [15]): 0.2 µM (≈ 0.404 µg/mL) | MIC (Acinetobacter baumannii [16]): 0.2 µM (≈ 0.404 µg/mL) | MIC (Acinetobacter baumannii [17]): 0.2 µM (≈ 0.404 µg/mL) | MIC (Acinetobacter baumannii [18]): 0.2 µM (≈ 0.404 µg/mL)
Compound: CCCCCCCCCC(=O)N[C@@H](Cc1c[nH]c2ccccc12)C(=O)N[C@H](CC(N)=O)C(=O)N[C@@H](CC(=O)O)C(=O)N[C@@H]1C(=O)NCC(=O)N[C@@H](CCCNC(=O)CN(CCCCNC(=O)c2cccc(O)c2O)C(=O)c2cccc(O)c2O)C(=O)N[C@@H](CC(=O)O)C(=O)N[C@H](C)C(=O)N[C@@H](CC(=O)O)C(=O)NCC(=O)N[C@H](CO)C(=O)N[C@@H](C(C)CC(=O)O)C(=O)N[C@@H](CC(=O)c2ccccc2N)C(=O)O[C@@H]1C (stereo not given in full)
